Experimental data from patent US20090291071A1, “COMPOSITIONS AND METHODS FOR CONTROLLING LIPID METABOLISM” (priority 2007, published 2009).
Where two headings read alike, the source gives them in different places.

How the values were obtained:
[1] = test system: lipoprotein; assay: Inhibition of lipoprotein oxidation (heart disease model); assay type: biochemical; design: % Inhibition Vit C Alone: concentration or dose not given beside the values
Description: Various combinations of antioxidants were studied to determine synergetic effects on lipoprotein oxidation. […] The antioxidants were used alone and together at micromolar and submolar concentrations to determine additive and […] effects on percentage inhibition of lipoprotein oxidation. A result when used together which is greater than the sum of this effects alone is considered to be a synergistic response. […] (Upper Panel) and Grow C (a natural Vitamin C extract) (Lower Panel).

[2] = test system: lipoprotein; assay: Glycation of lipoprotein by sugars; assay type: biochemical; settings: for glycation of the lipoprotein by glucose and D-ribose: combined with glucose or D-ribose, and lipoprotein
Description: When dried beer solids, […], Vitamin E and Vitamin C were combined with glucose or D-ribose, and lipoprotein, glycation of the lipoprotein by glucose and D-ribose was inhibited. Similarly when RBC-Vitamin C or Vitamin E were combined with sorbitol and lipoprotein, glycation of the lipoprotein by sorbitol was inhibited.

[3] = test system: LDL; settings: humans, daily ingestion of 1,200 IU; cited from earlier work

## O=C1O[C@H]([C@@H](O)CO)C(O)=C1O [Vit C, ascorbic acid]
[1]; line of Weight Ratio Vit C:DBS 0.136:1
  % Inhibition Vit C Alone: 0%
[1]; line of Weight Ratio Vit C:DBS 0.274:1
  % Inhibition Vit C Alone: 1.2%
[1]; line of Weight Ratio Vit C:DBS 0.343:1
  % Inhibition Vit C Alone: 2.0%
[1]; line of Weight Ratio Vit C:DBS 0.520:1
  % Inhibition Vit C Alone: 2.6%
[1]; line of Weight Ratio Vit C:DBS 0.680:1
  % Inhibition Vit C Alone: 3.0%
[2]
  glycation of the lipoprotein by glucose and D-ribose: inhibited

## Cc1c(C)c2c(c(C)c1O)CC[C@@](C)(CCC[C@H](C)CCC[C@H](C)CCCC(C)C)O2 [E, α-tocopherol]
[1]; E 25.6 mg
  % Inhibition of E Alone: 10.1%
[2]
  glycation of the lipoprotein by glucose and D-ribose: inhibited
[2]; combined with sorbitol and lipoprotein
  glycation of the lipoprotein by sorbitol: inhibited
[3]
  increase of the (alpha)-tocopherol content of LDL: up to 215%
  increase of the resistance of LDL to oxidation: ≤ 175%

## Catechin
0 h (time zero, reference)
  quantity of L-ascorbic acid remaining: 100%
6 h, test substance 0.01 mg/ml
  quantity of L-ascorbic acid remaining: 14.6%
6 h, test substance 0.1 mg/ml
  quantity of L-ascorbic acid remaining: 16.7%
6 h, test substance 1.0 mg/ml
  quantity of L-ascorbic acid remaining: 17.7%
20 h, test substance 0.01 mg/ml
  quantity of L-ascorbic acid remaining: 0.8%
20 h, test substance 0.1 mg/ml
  quantity of L-ascorbic acid remaining: 0.8%
20 h, test substance 1.0 mg/ml
  quantity of L-ascorbic acid remaining: 1.0%
44 h, test substance 0.01 mg/ml
  quantity of L-ascorbic acid remaining: 1.4%
44 h, test substance 0.1 mg/ml
  quantity of L-ascorbic acid remaining: 1.0%
44 h, test substance 1.0 mg/ml
  quantity of L-ascorbic acid remaining: 1.2%
72 h, test substance 0.01 mg/ml
  quantity of L-ascorbic acid remaining: 2.4%
72 h, test substance 0.1 mg/ml
  quantity of L-ascorbic acid remaining: 2.0%
72 h, test substance 1.0 mg/ml
  quantity of L-ascorbic acid remaining: 2.2%
Tested up to 1.0 mg/ml
  inhibition of L-ascorbic acid degradation: Neither epicatechin (EPC) nor catechin (CAT) showed any inhibitory effects
